Assay results as given in patent US9878982B2, “Pyridine derivatives and anti-mycobacterial use thereof” (priority 2014, dated 2018).
≈ marks a conversion by molar mass, not a printed value.

Legend:
[1] = test system: Vero Cell; experiment: Vero cell cytotoxicity (IC50); format: cell-based; settings: Chlorocebus sabaeus, Vero, African green monkey kidney cells
[2] = test system: M. tuberculosis H37R; experiment: microbe, parasite or virus in culture; format: cell-based, Mycobacterium tuberculosis; settings: Mycobacterium tuberculosis, H37R; read-out: M. tuberculosis H37R LORA (MIC)
[3] = test system: Mycobacterium smegmatis strain ATCC19420; experiment: In vitro efficacy test using Mycobacterium smegmatis strain ATCC19420 (MIC); format: cell-based; settings: Mycolicibacterium smegmatis, ATCC19420, 72 h, CA-MHB + 0.02% Tween 80, 30° C., read after 72 hours
[4] = Hela cell cytotoxicity (CC50); settings: human, HeLa cells (human cervical cancer cells), CC50_Hela, half of the toxic concentration
[5] = test system: M. tuberculosis H37Rv; experiment: In vitro efficacy test using the H37Rv strain, Microplate Alamar Blue Assay (MABA) MIC; format: cell-based, Mycobacterium tuberculosis; settings: Mycobacterium tuberculosis, H37RV, aerobic; 7H9 medium, Alamar Blue; read-out: M. tuberculosis H37Rv MABA (MIC)

Compound | IC50 [1] | MIC [2] | MIC [3] | CC50 [4] | MIC [5]
COc1ncc(-c2csc(Cl)c2)cc1C(c1ccccc1)C(O)(CCN(C)C)c1cccc2ccccc12 (centres unmarked) [Compound 245, 1-(5-(5-chlorothiophen-3-yl)-2-methoxypyridin-3-yl)-4-(dimethylamino)-2-(naphthalen-1-yl)-1-phenylbutan-2-ol] | > 32 µg/mL | 1.39 µg/mL (≈ 2.56 µM) | ≤ 0.0625 µg/mL | > 64 µg/mL | 0.86 µg/mL (≈ 1.58 µM)
COc1ncc(-c2cnsc2)cc1C(c1ccccc1)C(O)(CCN(C)C)c1cccc2ccccc12 (centres unmarked) [Compound 165, 4-(dimethylamino)-1-(5-(isothiazol-4-yl)-2-methoxypyridin-3-yl)-2-(naphthalen-1-yl)-1-phenylbutan-2-ol] | 26.3 µg/mL (≈ 51.6 µM) | 3.94 µg/mL (≈ 7.73 µM) | 0.25 µg/mL | 28.8 µg/mL (≈ 56.5 µM) | 1.98 µg/mL (≈ 3.88 µM)
COc1cccc(C(c2cc(-c3ccccc3)cnc2OC)C(O)(CCN(C)C)c2cc(Cl)cc(Cl)c2)c1OC (centres unmarked) [Compound 213, 2-(3,5-dichlorophenyl)-1-(2,3-dimethoxyphenyl)-4-(dimethylamino)-1-(2-methoxy-5-phenylpyridin-3-yl)butan-2-ol] | 25.2 µg/mL (≈ 43.3 µM) | 0.46 µg/mL (≈ 0.791 µM) | ≤ 0.0625 µg/mL | > 64 µg/mL | 0.125 µg/mL (≈ 0.215 µM)
COc1cccc(C(c2cc(-c3ccccc3)cnc2OC)C(O)(CCN(C)C)c2cccc(Cl)c2)c1OC (centres unmarked) [Compound 209, 2-(3-chlorophenyl)-1-(2,3-dimethoxyphenyl)-4-(dimethylamino)-1-(2-methoxy-5-phenylpyridin-3-yl)butan-2-ol] | 27.3 µg/mL (≈ 49.9 µM) | 0.84 µg/mL (≈ 1.54 µM) | 0.0312 µg/mL | 13.3 µg/mL (≈ 24.3 µM) | 0.89 µg/mL (≈ 1.63 µM)
COc1ncc(-c2cccc(C#N)c2)cc1C(c1ccccc1)C(O)(CCN(C)C)c1cccc2ccccc12 (centres unmarked) [Compound 153, 3-(5-(4-(dimethylamino)-2-hydroxyl-2-(naphthalen-1-yl)-1-phenylbutyl)-6-methoxypyridin-3-yl)-benzonitrile] | > 32 µg/mL | 2.54 µg/mL (≈ 4.81 µM) | 0.25 µg/mL | > 64 µg/mL | 0.96 µg/mL (≈ 1.82 µM)
COc1ncc(-c2ccc(OC(F)(F)F)cc2)cc1C(c1ccccc1)C(O)(CCN(C)C)c1cccc2ccccc12 (centres unmarked) [Compound 375, 4-(dimethylamino)-1 (2-methoxy-5-(4-(trifluoromethoxy)phenyl)pyridin-3-yl)-2-(naphthalen-1-yl)-1-phenylbutan-2-ol] | > 32 µg/mL | 0.61 µg/mL (≈ 1.04 µM) | 0.0156 µg/mL | > 64 µg/mL | 0.031 µg/mL (≈ 0.0528 µM)
COc1ncc(-c2cccs2)cc1C(c1ccccc1)C(O)(CCN(C)C)c1cccc2ccccc12 (centres unmarked) [Compound 141, 4-(dimethylamino)-1-(2-methoxy-5-(thiophen-2-yl)pyridin-3-yl)-2-(naphthalen-1-yl)-1-phenylbutan-2-ol] | 24.4 µg/mL (≈ 47.9 µM) | 1.44 µg/mL (≈ 2.83 µM) | ≤ 0.0625 µg/mL | > 64 µg/mL | 0.93 µg/mL (≈ 1.83 µM)
COc1ncc(-c2ccc(C#N)cc2)cc1C(c1ccccc1)C(O)(CCN(C)C)c1cccc2ccccc12 (centres unmarked) [Compound 157, 4-(5-(4-(dimethylamino)-2-hydroxyl-2-(naphthalen-1-yl)-1-phenylbutyl)-6-methoxypyridin-3-yl)-benzonitrile] | > 32 µg/mL | 0.77 µg/mL (≈ 1.46 µM) | 0.0312 µg/mL | > 64 µg/mL | 0.44 µg/mL (≈ 0.834 µM)
COc1ncc(-c2ccc(Br)c(F)c2)cc1C(c1ccccc1)C(O)(CCN(C)C)c1cccc2ccccc12 (centres unmarked) [Compound 331, 1-(5-(4-bromo-3-fluorophenyl)-2-methoxypyridin-3-yl)-4-(dimethylamino)-2-(naphthalen-1-yl)-1-phenylbutan-2-ol] | > 32 µg/mL | 4.07 µg/mL (≈ 6.79 µM) | 0.0625 µg/mL | > 64 µg/mL | 0.04 µg/mL (≈ 0.0667 µM)
COc1ncc(-c2ccc(Cl)cc2)cc1C(c1ccccc1)C(O)(CCN(C)C)c1ccc(Br)cc1 (single isomer, unassigned) [Compound 390, 2-(4-bromophenyl)-1-(5-(4-chlorophenyl)-2-methoxypyridin-3-yl)-4-(dimethylamino)-1-phenylbutan-2-ol] | > 32 µg/mL | < 0.125 µg/mL | 0.0625 µg/mL | 24.1 µg/mL (≈ 42.7 µM) | 0.087 µg/mL (≈ 0.154 µM)
CC#Cc1cnc(OC)c(C(c2ccccc2)C(O)(CCN(C)C)c2cccc3ccccc23)c1 (centres unmarked) [Compound 263, 4-(dimethylamino)-1-(2-methoxy-5-prop-1-ynyl-3-pyridyl)-2-(1-naphthyl)-1-phenylbutan-2-ol] | > 32 µg/mL | 2.08 µg/mL (≈ 4.48 µM) | 0.5 µg/mL | > 64 µg/mL | 1.38 µg/mL (≈ 2.97 µM)
COc1ncc(-c2ccco2)cc1C(c1ccccc1)C(O)(CCN(C)C)c1cccc2ccccc12 (centres unmarked) [Compound 183, 4-(dimethylamino)-1-(5-(furan-2-yl)-2-methoxypyridin-3-yl)-2-(naphthalen-1-yl)-1-phenylbutan-2-ol] | 24.5 µg/mL (≈ 49.8 µM) | 1.33 µg/mL (≈ 2.7 µM) | ≤ 0.0625 µg/mL | > 64 µg/mL | 0.5 µg/mL (≈ 1.01 µM)
COc1ncc(-c2ccc(F)c(F)c2)cc1C(c1ccccc1)C(O)(CCN(C)C)c1cccc2ccccc12 (centres unmarked) [Compound 347] | > 32 µg/mL | 0.51 µg/mL (≈ 0.947 µM) | 0.0625 µg/mL | > 64 µg/mL | 0.23 µg/mL (≈ 0.427 µM)
COc1ncc(C2CCOCC2)cc1C(c1ccccc1)C(O)(CCN(C)C)c1cccc2ccccc12 (centres unmarked) [Compound 75, 4-(dimethylamino)-1-(2-methoxy-5-(tetrahydro-2H-pyran-4-yl)pyridin-3-yl)-2-(naphthalen-1-yl)-1-phenylbutan-2-ol] | > 50 µg/mL | 2.73 µg/mL (≈ 5.35 µM) | 0.125 µg/mL | 22.5 µg/mL (≈ 44 µM) | 1.32 µg/mL (≈ 2.58 µM)
COc1ncc(-c2ccc(Br)cc2)cc1C(c1ccccc1)C(O)(CCN(C)C)c1cccc(F)c1 (centres unmarked) [Compound 319] | > 32 µg/mL | 0.22 µg/mL (≈ 0.4 µM) | 0.0312 µg/mL | 49.2 µg/mL (≈ 89.5 µM) | 0.09 µg/mL (≈ 0.164 µM)
COc1ncc(-c2ccc(Br)cc2)cc1C(c1ccccc1)C(O)(CCN(C)C)c1cccc(F)c1F (centres unmarked) [Compound 312, 1-(5-(4-bromophenyl)-2-methoxypyridin-3-yl)-2-(2,3-difluorophenyl)-4-(dimethylamino)-1-phenylbutan-2-ol] | > 32 µg/mL | 0.19 µg/mL (≈ 0.335 µM) | 0.0156 µg/mL | 31.3 µg/mL (≈ 55.2 µM) | 0.04 µg/mL (≈ 0.0705 µM)
COc1ncc(-c2ccccc2Cl)cc1C(c1ccccc1)C(O)(CCN(C)C)c1cccc2ccccc12 (centres unmarked) [Compound 107] | > 50 µg/mL | 3.03 µg/mL (≈ 5.64 µM) | 0.5 µg/mL | > 64 µg/mL | 1.17 µg/mL (≈ 2.18 µM)
COc1cccc(C(c2cc(-c3ccccc3)cnc2OC)C(O)(CCN(C)C)c2ccccc2)c1F (centres unmarked) [Compound 226, 4-(dimethylamino)-1-(2-fluoro-3-methoxyphenyl)-1-(2-methoxy-5-phenylpyridin-3-yl)-2-phenylbutan-2-ol] | 25.5 µg/mL (≈ 50.9 µM) | 0.97 µg/mL (≈ 1.94 µM) | 0.125 µg/mL | 13.1 µg/mL (≈ 26.2 µM) | 0.44 µg/mL (≈ 0.879 µM)
COc1ncc(-c2ccc(Cl)cc2)cc1C(c1ccccc1)C(O)(CCN(C)C)c1cccc(Br)c1 (single isomer, unassigned) [Compound 388, 2-(3-bromophenyl)-1-(5-(4-chlorophenyl)-2-methoxypyridin-3-yl)-4-(dimethylamino)-1-phenylbutan-2-ol] | > 32 µg/mL | < 0.125 µg/mL | 0.0156 µg/mL | 26.2 µg/mL (≈ 46.2 µM) | 0.062 µg/mL (≈ 0.11 µM)
